The results in this text go back to patent publication US8536354B2, “Steroidal ligands and their use in gene switch modulation” (Intrexon Corporation, priority 2008, dated 2013).

By EC50 is commonly meant the midpoint of the concentration-response curve.

In series [1] the target is T1, Manduca sexta EcR (MsEcR) (Manduca sexta, UniProt P49883).
T1 sequence (P49883 293-531 limits assumed): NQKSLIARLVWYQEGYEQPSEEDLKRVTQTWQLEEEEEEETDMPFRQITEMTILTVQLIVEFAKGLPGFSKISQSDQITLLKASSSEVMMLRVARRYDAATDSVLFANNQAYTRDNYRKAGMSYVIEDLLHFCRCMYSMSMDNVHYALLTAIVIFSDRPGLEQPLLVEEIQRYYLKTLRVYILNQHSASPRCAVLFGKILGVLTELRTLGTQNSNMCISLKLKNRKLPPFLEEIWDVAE
The series is described as follows: Two-hybrid gene switch assay, MsEcR-CDEF in NIH3T3 cells. To be noted: MsEcR; alternative 3T3 fibroblast cell stock.

In series [2] the test system is D. melanogaster BII cell line (expresses the ecdysteroid receptor complex EcR-USP). The series is described as follows: Drosophila melanogaster BII cell line bioassay (turbidometric; agonist and antagonist versions).
Series [3] has as its system EcRs (lepidopteran and non-lepidopteran). The series is described as follows: Two-hybrid gene switch assays, statements across the set of ten EcRs in NIH3T3 cells. To be noted: FIGS. 13 and 14.
For series [4], the target named is T2, wild-type Choristoneura fumiferana EcR (CfEcR-DEF) (Choristoneura fumiferana, UniProt O77255).
T2 sequence (O77255 219-541): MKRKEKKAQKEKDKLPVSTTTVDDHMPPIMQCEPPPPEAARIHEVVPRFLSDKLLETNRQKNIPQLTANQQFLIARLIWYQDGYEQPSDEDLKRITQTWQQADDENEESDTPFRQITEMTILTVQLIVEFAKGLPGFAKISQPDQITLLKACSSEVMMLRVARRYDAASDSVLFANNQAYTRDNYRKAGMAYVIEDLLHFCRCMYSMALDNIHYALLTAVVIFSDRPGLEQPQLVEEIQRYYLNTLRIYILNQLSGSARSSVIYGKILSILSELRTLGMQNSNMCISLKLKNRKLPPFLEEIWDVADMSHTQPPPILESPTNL
T2 sequence (P28702 299-449 partner): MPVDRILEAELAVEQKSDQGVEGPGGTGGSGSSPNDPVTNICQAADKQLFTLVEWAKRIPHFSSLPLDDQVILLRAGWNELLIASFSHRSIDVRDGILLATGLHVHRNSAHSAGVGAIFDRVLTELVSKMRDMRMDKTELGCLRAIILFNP
The series is described as follows: Two-hybrid gene switch assay, wild-type CfEcR-DEF (GAL4-EcR / VP16-RXR-USP chimera, luciferase) in NIH3T3 cells. To be noted: for RMFI (relative maximum fold induction, relative to diacylhydrazine 30): wt-CfEcR gene switch, NIH3T3, Example One.

Series [5] has as its target T3, wild-type Aedes aegypti EcR (AaEcR-DEF) (Aedes aegypti, UniProt P49880).
T3 sequence (P49880 405-776 limits assumed): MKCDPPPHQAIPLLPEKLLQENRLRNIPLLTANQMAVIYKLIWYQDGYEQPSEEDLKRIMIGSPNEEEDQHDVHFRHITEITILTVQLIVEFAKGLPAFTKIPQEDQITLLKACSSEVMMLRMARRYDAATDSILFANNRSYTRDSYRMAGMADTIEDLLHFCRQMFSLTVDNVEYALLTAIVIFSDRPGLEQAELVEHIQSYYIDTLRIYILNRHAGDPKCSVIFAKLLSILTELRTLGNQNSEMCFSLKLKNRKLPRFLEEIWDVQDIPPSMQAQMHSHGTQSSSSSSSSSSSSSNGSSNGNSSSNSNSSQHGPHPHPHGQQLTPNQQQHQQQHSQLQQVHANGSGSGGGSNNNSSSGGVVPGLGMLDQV
The series is described as follows: Two-hybrid gene switch assay, AaEcR-DEF in NIH3T3 cells. To be noted: AaEcR.

Series [6] deals with T4, wild-type Drosophila melanogaster EcR (DmEcR-DEF) (Drosophila melanogaster, UniProt P34021).
T4 sequence (P34021 342-878 limits assumed): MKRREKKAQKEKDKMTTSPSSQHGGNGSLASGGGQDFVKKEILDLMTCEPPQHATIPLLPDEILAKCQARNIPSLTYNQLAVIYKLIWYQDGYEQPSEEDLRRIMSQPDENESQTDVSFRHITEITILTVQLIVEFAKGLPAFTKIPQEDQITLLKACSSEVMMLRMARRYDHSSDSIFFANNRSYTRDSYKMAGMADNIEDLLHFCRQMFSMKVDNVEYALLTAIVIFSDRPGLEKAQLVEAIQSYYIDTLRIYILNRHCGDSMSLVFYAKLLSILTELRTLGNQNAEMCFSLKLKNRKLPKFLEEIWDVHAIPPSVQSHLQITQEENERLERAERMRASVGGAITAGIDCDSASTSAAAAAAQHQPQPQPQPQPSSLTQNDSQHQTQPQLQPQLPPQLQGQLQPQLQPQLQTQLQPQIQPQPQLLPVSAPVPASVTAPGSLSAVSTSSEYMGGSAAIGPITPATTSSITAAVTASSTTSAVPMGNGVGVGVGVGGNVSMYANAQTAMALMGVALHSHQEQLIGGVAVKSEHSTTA
Briefly: Two-hybrid gene switch assay, DmEcR-DEF in NIH3T3 cells. The settings on record: DmEcR.

[7] abbreviates: read-out: EC50 (M), BII bioassay results, D. melanogaster BII cell line, turbidometric.
The mark [8] stands for this setting: Drosophila melanogaster, read-out: EC50 (M), BII bioassay results.
Setting [9] is: relative to 3,5-dimethyl-benzoic acid N-tert-butyl-N′-(2-ethyl-3-methoxy-benzoyl)-hydrazide.

Molecules are shown by their SMILES. Read-outs that look alike come from different tables or passages of the source.

Take `CO[C@@H]1C[C@H]2C(=O)C=C3[C@H](CC[C@]4(C)[C@@H]([C@@](C)(O)[C@H](O)CCC(C)(C)O)CC[C@@]34O)[C@@]2(C)C[C@@H]1O` [compound 2, 20-hydroxyecdysone, 3-methyl ether]: the “potency of ether relative to parent” value in series [1] was “lose potency”. The concentration giving a half-maximal response (EC50) in series [2] (setting [7]) came out at 6e-07 M.

In the case of `CO[C@H](CCC(C)(C)O)[C@](C)(O)C1CC[C@@]2(OC)C3=CC(=O)C4C[C@@H](O)[C@@H](O)CC4(C)C3CCC12C` (stereo partly shown) [compound 13, 20-hydroxyecdysone, 14,22-dimethyl ether], in series [2] (setting [8]), the 50% effective concentration (EC50) came out at 2.5e-06 M.

With `CO[C@H](CCC(C)(C)O)[C@](C)(O)C1CC[C@@]2(O)C3=CC(=O)C4C[C@@H](O)[C@@H](O)CC4(C)C3CCC12C` (stereo partly shown) [compound 4, 20-hydroxyecdysone-22-methyl ether], in series [1], the “potency of ether relative to parent” value is “lose potency”. In addition, in series [2], the “BII potency relative to 20E” value is “maintains 20E potency”. In addition, the EC50 in series [2] (setting [8]) is 6.3e-09 M; in series [2] (Drosophila melanogaster, read-out: −log EC50 (converted)), 6.31e-09 M.

In the case of `CO[C@H](CCC(C)(C)OC)[C@](C)(O)[C@H]1CC[C@@]2(O)C3=CC(=O)[C@@H]4C[C@@H](O)[C@@H](O)C[C@]4(C)[C@H]3CC[C@]12C` [compound 14, 20-hydroxyecdysone, 22,25-dimethyl ether], the EC50 in series [2] (setting [7]) amounted to 1.2e-07 M.

On to `C=C(C)CC[C@@H](O)[C@](C)(O)[C@H]1CC[C@@]2(O)C3=CC(=O)[C@@H]4C[C@@H](O)[C@@H](O)C[C@]4(C)[C@H]3CC[C@]12C` [isostachysterone C, 25,26-didehydroponasterone A], for which the “activity across the tested set of EcRs” value in series [3] is recorded as “active”.

For `CO[C@@]12CCC([C@@](C)(O)[C@H](O)CCC(C)(C)O)C1(C)CCC1C2=CC(=O)C2C[C@@H](O)[C@@H](O)CC21C` (stereo partly shown) [compound 3, 20-hydroxyecdysone, 14-methyl ether], the half-maximal effective concentration (EC50) in series [2] (setting [8]) worked out at 3.2e-06 M.

For `CO[C@H](CCC(C)C)[C@](C)(O)C1CC[C@@]2(O)C3=CC(=O)C4C[C@@H](O)[C@@H](O)CC4(C)C3=CCC12C` (stereo partly shown) [compound 22, dacryhainansterone, 22-methyl ether], the 50% effective concentration (EC50) in series [2] (setting [8]) was determined as 1e-07 M. The “RMFI (relative maximum fold induction, relative to diacylhydrazine 30)” value in series [4] was about 0.3.

As to `COC1C[C@H]2C(=O)C=C3[C@H](CC[C@]4(C)[C@@H]([C@@](C)(O)C(CCC(C)(C)O)OC)CC[C@@]34O)[C@@]2(C)CC1O` (stereo partly shown) [compound 12, 20-hydroxyecdysone, 3,22-dimethyl ether], the “potency of ether relative to parent” value in series [1] is on record as “lose potency”. In addition, the 50% effective concentration (EC50) in series [2] (setting [7]) was found to be 2.2e-07 M.

With `CO[C@H]1C[C@@]2(C)[C@@H](C[C@H]1O)C(=O)C=C1[C@@H]2CC[C@]2(C)[C@@H]([C@@](C)(O)C(O)CCC(C)(C)O)CC[C@@]12O` (stereo partly shown) [compound 1, 20-hydroxyecdysone, 2-methyl ether], the concentration for a half-maximal effect (EC50) in series [2] (setting [7]) was determined as 1.1e-06 M.

As to `CO[C@H](CCC(C)C)[C@](C)(O)[C@H]1CC[C@@]2(O)C3=CC(=O)[C@@H]4C[C@@H](O)[C@@H](O)C[C@]4(C)[C@H]3CC[C@]12C` [PoA-22-methyl ether], the “rel max FI (diacylhydrazine), AA” value in series [5] (setting [9]) is listed as about 0.8. The concentration for a half-maximal effect (EC50) in series [5] (EC50 (μM), AA, NIH3T3 cells, luciferase, 48 h, ligand 0.01-33 μM) was under 0.01 µM; in series [6] (EC50 (μM), DM, NIH3T3 cells, luciferase, 48 h, ligand 0.01-33 μM), about 0.03 µM; in series [4] it was about 2000 nM. The “rel max FI (diacylhydrazine), DM” value in series [6] (setting [9]) is about 0.9. Also, the Emax in series [4] (NIH3T3, 48 h, read-out: rel max FI (diacylhydrazine), CF) fell in the range of 30 to 65%.

On to `CO[C@H]1C[C@@]2(C)[C@@H](C[C@H]1O)C(=O)C=C1[C@@H]2CC[C@]2(C)[C@@H]([C@@](C)(O)[C@@H](CCC(C)(C)O)OC)CC[C@@]12O` [compound 11, 20-hydroxyecdysone, 2,22-dimethyl ether], for which the EC50 in series [2] (setting [7]) came to 9.3e-07 M.

Regarding `C=CCO[C@H](CCC(C)(C)O)[C@](C)(O)C1CC[C@@]2(O)C3=CC(=O)C4C[C@@H](O)[C@@H](O)CC4(C)C3CCC12C` (stereo partly shown) [compound 7, 20-hydroxyecdysone, 22-allyl ether], in series [2] (setting [8]), the EC50 is 1.6e-07 M.

Take `COC(CCC(C)C)[C@](C)(O)[C@H]1CC[C@@]2(O)C3=CC(=O)[C@@H]4C[C@@H](OC)[C@@H](O)C[C@]4(C)[C@H]3CC[C@]12C` (stereo partly shown) [compound 20, ponasterone A, 3,22-dimethyl ether]: the EC50 in series [2] (setting [7]) came out at 1.2e-08 M.

Turning to `COC(C)(C)CC[C@@H](O)[C@](C)(O)[C@H]1CC[C@@]2(O)C3=CC(=O)[C@@H]4C[C@@H](O)[C@@H](O)C[C@]4(C)[C@H]3CC[C@]12C` [compound 10, 20-hydroxyecdysone-25-methyl ether], in series [2] (setting [7]), the EC50 amounted to 6e-08 M.

For the compound `CO[C@H]1CC2(C)C(C[C@H]1OC)C(=O)C=C1C2CCC2(C)C([C@@](C)(O)[C@@H](CCC(C)(C)O)OC)CC[C@@]12OC` (stereo partly shown) [compound 15, 20-hydroxyecdysone, 2,3,14,22-tetramethyl ether], the EC50 in series [2] (setting [8]) worked out at 9e-05 M.

In the case of `CO[C@H]1C[C@@]2(C)[C@@H](C[C@H]1O)C(=O)C=C1[C@@H]2CC[C@]2(C)[C@@H]([C@@](C)(O)[C@H](O)CCC(C)C)CC[C@@]12O` [compound 16, ponasterone A, 2-methyl ether], in series [2] (setting [7]), the concentration giving a half-maximal response (EC50) was 4.3e-08 M.

As to `CO[C@H](CCC(C)C)[C@](C)(O)[C@H]1CC[C@@]2(OC)C3=CC(=O)[C@@H]4C[C@@H](O)[C@@H](O)C[C@]4(C)[C@H]3CC[C@]12C` [compound 21, ponasterone A, 14,22-dimethyl ether], the concentration for a half-maximal effect (EC50) in series [2] (setting [7]) worked out at 1.7e-07 M.

`CCCCO[C@H](CCC(C)(C)O)[C@](C)(O)C1CC[C@@]2(O)C3=CC(=O)C4C[C@@H](O)[C@@H](O)CC4(C)C3CCC12C` (stereo partly shown) [compound 8, 20-hydroxyecdysone, 22-n-butyl ether]: the EC50 in series [2] (setting [8]) is 1e-07 M.

In the case of `CCO[C@H](CCC(C)(C)O)[C@](C)(O)C1CC[C@@]2(O)C3=CC(=O)C4C[C@@H](O)[C@@H](O)CC4(C)C3CCC12C` (stereo partly shown) [compound 5, 20-hydroxyecdysone-22-ethyl ether], the “BII potency relative to 20E” value in series [2] is on record as “slightly less potent than methyl”. For the same compound, the EC50 in series [2] (setting [8]) came out at 2.2e-08 M. Further, in series [4], the concentration for a half-maximal effect (EC50) is 4850 nM and the “RMFI (relative maximum fold induction, relative to diacylhydrazine 30)” value was 0.77. In addition, the activation at 5 µM in series [4] (NIH3T3, 48 h, read-out: reporter gene induction, % of maximum fold induction) turned out to be 77%.
